This is an account of results in patent EP0302423A2, “1-Phenyl-3-(1-piperazinyl)-1h-indazoles, a process and intermediates for their preparation, and the use thereof as medicaments” (HOECHST-ROUSSEL PHARMACEUTICALS INCORPORATED, priority 1987, dated 1989).

Counter-ions that a name gives are not always drawn. Like-named read-outs stand apart in the source and are kept apart here.

What all share (type): in vivo
The subject of assay [1] is mice. Briefly: tetrabenazine induced ptosis assay in mice (antidepressant activity). Conditions: for ED50: Mus musculus, ip, i.p. dose effecting calculated 50% inhibition of tetrabenazine-induced ptosis in mice, read-out: ANTI-DEPRESSANT ACTIVITY (% Inhibition of Ptosis) ED50 (mg/kg,i.p.). As to the method:
In this procedure, male mice (Charles River, CD-1), weighing about 20 to 39 g, are used in test groups of five animals. Test compounds are dissolved, or suspended with 1 drop of Tween-80, in distilled water and administered to the animals in volumes of 10 cc per kg of body weight. […] Tetrabenazine solution and the solvent used to dissolve, or suspend, the test compounds are administered by the same route and at the same intervals as the test compounds to a control group. […] The total score for each group of 5 animals will therefore vary from 0 to 20; these scores are used as the indications of the activity of the test compound. The vehicle-control group score is used as a determinate of the validity of each test.

In another assay the test system is male mouse. Briefly: supramaximal electroshock (SES) assay (anticonvulsant activity). To be noted: for ED50: ip, read-out: ANTICONVULSANT ACTIVITY (% Inhibition of Convulsion) ED50 (mg/kg,i.p.).
Assay [2] deals with mice. Kind of assay: phenyl-p-benzoquinone writhing assay in mice (analgesia). To be noted: Mus musculus, sc.
Where [3] appears, read: male mouse, at peak activity time, protection against extensor tonus.
Setting [4] is: calculated s.c. dose effecting approximately 50% inhibition of writhing in mice, at peak time, read-out: ANALGESIC ACTIVITY (% Inhibition of Writhing) ED50.
The mark [5] stands for this setting: read-out: ANALGESIC ACTIVITY (% Inhibition of Writhing) ED50 (mg/kg).

As to `Fc1ccc(-n2nc(N3CCNCC3)c3ccccc32)cc1` [1-(4-Fluorophenyl)-3-(1-piperazinyl)-1H-indazole], in the assay with mice [1], the ED50 was 17.3 mg/kg.

`CP(C)(=O)CN1CCN(c2nn(-c3ccccc3)c3ccccc23)CC1` [3-[4-(Dimethylphosphinylmethyl)-1-piperazinyl]-1-phenyl-1H-indazole]: in the assay with male mouse (setting [3]), the ED50 worked out at 24.3 mg/kg.

On to `c1ccc(-n2nc(N3CCNCC3)c3ccccc32)cc1` [1-Phenyl-3-(1-piperazinyl)-1H-indazole hydrocloride], for which the ED50 was 25.4 mg/kg in the assay on mice [1] and 0.7 mg/kg with mice [2] (setting [4]). For the same molecule, the “% inhibition of convulsions at indicated dosage” value in the assay on male mouse (60 mg/kg, i.p., male mouse) is recorded as 100% @ 60 mg/kg*.

Consider `CN(C)CCC=C1c2ccccc2CCc2ccccc21` [amitriptyline, reference compound], for which the ED50 with mice [1] was 1.5 mg/kg.

`CN(C)CCCN1c2ccccc2CCc2ccccc21` [imipramine, reference compound]: the ED50 with mice [1] (read-out: ANTI-[…] (% Inhibition of Ptosis) ED50 (mg/kg,i.p.)) was 1.3 mg/kg.

As to `CN1CCN(c2nn(-c3ccc(C(F)(F)F)cc3)c3ccccc23)CC1.O=C(O)/C=C/C(=O)O` [3-(4-Methyl-1-piperazinyl)-1-[4-(trifluoromethyl)phenyl]-1H-indazole fumarate], in the assay on male mouse (setting [3]), the ED50 was 27 mg/kg.

In the case of `CC(C)=CCN1CCC2(C)c3cc(O)ccc3CC1C2C` (centres unmarked) [pentazocine, reference compound], in the assay with mice [2] (setting [5]), the ED50 was found to be 1.3 mg/kg.

Turning to `NC(=O)N1CCN(c2nn(-c3ccc(F)cc3)c3ccccc23)CC1` [4-[1-(4-Fluorophenyl)-1H-indazol-3-yl]-1-piperazine carboxamide], the ED50 in the assay with male mouse (setting [3]) came out at 22.7 mg/kg.

As for `CCC(=O)O[C@](Cc1ccccc1)(c1ccccc1)[C@H](C)CN(C)C` [propoxyphene, reference compound], in the assay on mice [2] (setting [5]), the ED50 is 3.9 mg/kg.

In the case of `CCC1(c2ccccc2)C(=O)NC(=O)NC1=O` [phenobarbitol, reference compound], in the assay on male mouse (Mus musculus), the ED50 was 8.4 mg/kg.

As for `CCN1CCN(c2nn(-c3ccc(C(F)(F)F)cc3)c3ccccc23)CC1` [3-(4-Ethyl-1-piperazinyl)-1-[4-trifluoromethyl)phenyl]-1H-indazole fumarate], the ED50 in the assay on male mouse (setting [3]) worked out at 8.2 mg/kg.

As for `CN1CCN(c2nn(-c3ccccc3)c3ccccc23)CC1.Cl` [1-Phenyl-3-(4-methyl-1-piperazinyl)-1H-indazole hydrochloride], the ED50 is 11.1 mg/kg in the assay with mice [1], 14.6 mg/kg in the assay on male mouse (setting [3]) and 1.6 mg/kg in the assay with mice [2] (setting [4]).

On to `NC(=O)N1CCN(c2nn(-c3ccccc3Cl)c3ccccc23)CC1` [4-[1-(2-chlorophenyl)-1H-indazol-3-yl]-1-piperazine carboxamide hemifumarate], for which the ED50 in the assay on male mouse (setting [3]) turned out to be 38.9 mg/kg.

On to `CN1CCN(c2nn(-c3ccc(F)cc3)c3ccccc23)CC1.O=C(O)/C=C/C(=O)O` [1-(4-Fluorophenyl)-3-(4-methyl-1-piperazinyl)-1H-indazole fumarate], for which, in the assay with mice [1] (20 mg/kg, i.p., mice), the “% inhibition of ptosis at indicated screening dosage (i.p.)” value was found to be 65% @ 20 mg/kg*. Further, the ED50 is 12.9 mg/kg with male mouse (setting [3]) and 0.8 mg/kg in the assay on mice [2] (setting [4]).
